Drawing on ChEMBL document CHEMBL3751785, “Development and structural analysis of adenosine site binding tankyrase inhibitors” (Bioorg Med Chem Lett, 2016), this text covers IC50 for one compound.

The IC50 is the concentration that inhibits the measured activity by half. A lower IC50 goes with greater potency in that assay.

Assay [1] has as its target Poly [ADP-ribose] polymerase 1 (Homo sapiens, UniProt P09874). The assay can be described thus: Inhibition of human ARTD1 by fluorescence analysis.
Assay [2] has as its target Protein mono-ADP-ribosyltransferase PARP14 (Homo sapiens, UniProt Q460N5). The assay can be described thus: Inhibition of human ARTD8 by fluorescence analysis.
The target of assay [3] is T1, Protein mono-ADP-ribosyltransferase PARP10 (Homo sapiens, UniProt Q53GL7).
T1 sequence (Q53GL7 whole entry): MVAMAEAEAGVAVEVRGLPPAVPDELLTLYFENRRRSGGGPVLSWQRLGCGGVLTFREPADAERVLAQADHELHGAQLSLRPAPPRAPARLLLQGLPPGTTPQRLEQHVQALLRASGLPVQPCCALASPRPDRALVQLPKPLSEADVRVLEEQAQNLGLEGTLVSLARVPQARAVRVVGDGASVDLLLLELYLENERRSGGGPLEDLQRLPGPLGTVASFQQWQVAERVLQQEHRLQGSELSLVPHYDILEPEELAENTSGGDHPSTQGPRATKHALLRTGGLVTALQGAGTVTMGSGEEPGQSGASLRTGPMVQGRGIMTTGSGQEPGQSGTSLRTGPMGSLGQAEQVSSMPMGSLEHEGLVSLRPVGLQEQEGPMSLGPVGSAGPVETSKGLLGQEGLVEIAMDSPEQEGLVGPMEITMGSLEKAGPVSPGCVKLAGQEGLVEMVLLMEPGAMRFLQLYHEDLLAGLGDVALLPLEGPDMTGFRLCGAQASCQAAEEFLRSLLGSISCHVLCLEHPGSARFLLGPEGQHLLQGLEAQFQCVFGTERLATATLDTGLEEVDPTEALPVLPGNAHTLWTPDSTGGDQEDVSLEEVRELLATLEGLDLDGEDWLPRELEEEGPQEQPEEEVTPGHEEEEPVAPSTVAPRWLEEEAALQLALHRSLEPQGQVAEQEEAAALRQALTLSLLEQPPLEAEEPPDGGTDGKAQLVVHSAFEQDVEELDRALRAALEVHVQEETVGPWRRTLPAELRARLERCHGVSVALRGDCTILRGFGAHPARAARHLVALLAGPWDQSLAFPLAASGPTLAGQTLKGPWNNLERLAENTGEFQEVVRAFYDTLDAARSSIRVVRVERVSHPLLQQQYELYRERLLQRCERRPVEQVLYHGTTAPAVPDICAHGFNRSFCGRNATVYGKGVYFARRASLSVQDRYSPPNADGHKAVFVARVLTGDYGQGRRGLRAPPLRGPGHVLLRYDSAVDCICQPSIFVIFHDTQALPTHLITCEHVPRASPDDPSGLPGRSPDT
The assay can be described thus: Inhibition of human ARTD10 by fluorescence analysis.

Assay [4] deals with T2, Protein mono-ADP-ribosyltransferase PARP15 (Homo sapiens, UniProt Q460N3).
T2 sequence (Q460N3 whole entry): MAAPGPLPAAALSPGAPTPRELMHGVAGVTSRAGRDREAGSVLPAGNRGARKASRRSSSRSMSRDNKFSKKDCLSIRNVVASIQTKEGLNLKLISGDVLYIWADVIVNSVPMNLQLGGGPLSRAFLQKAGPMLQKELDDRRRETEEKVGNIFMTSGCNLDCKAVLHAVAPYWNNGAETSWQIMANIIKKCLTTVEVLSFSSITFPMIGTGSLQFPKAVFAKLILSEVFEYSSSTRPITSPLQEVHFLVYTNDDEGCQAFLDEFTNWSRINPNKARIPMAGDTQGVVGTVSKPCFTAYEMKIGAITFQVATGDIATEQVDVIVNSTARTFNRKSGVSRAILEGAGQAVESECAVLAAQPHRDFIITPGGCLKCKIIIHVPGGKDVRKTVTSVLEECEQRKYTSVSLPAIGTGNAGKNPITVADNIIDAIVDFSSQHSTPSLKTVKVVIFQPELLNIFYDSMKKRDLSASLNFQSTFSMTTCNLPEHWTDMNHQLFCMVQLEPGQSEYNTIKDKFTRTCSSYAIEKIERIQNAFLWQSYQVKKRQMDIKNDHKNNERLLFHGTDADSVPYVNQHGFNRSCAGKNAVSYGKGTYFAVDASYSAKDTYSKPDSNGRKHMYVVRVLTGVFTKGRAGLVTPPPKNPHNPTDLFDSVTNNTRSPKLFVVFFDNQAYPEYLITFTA
The assay can be described thus: Inhibition of human ARTD7 by fluorescence analysis.

Assay [5] concerns the target Poly [ADP-ribose] polymerase 2 (Homo sapiens, UniProt Q9UGN5). The assay can be described thus: Inhibition of human ARTD2 by fluorescence analysis.
The target of assay [6] is T3, Protein mono-ADP-ribosyltransferase PARP3 (Homo sapiens, UniProt Q9Y6F1).
T3 sequence (Q9Y6F1 whole entry): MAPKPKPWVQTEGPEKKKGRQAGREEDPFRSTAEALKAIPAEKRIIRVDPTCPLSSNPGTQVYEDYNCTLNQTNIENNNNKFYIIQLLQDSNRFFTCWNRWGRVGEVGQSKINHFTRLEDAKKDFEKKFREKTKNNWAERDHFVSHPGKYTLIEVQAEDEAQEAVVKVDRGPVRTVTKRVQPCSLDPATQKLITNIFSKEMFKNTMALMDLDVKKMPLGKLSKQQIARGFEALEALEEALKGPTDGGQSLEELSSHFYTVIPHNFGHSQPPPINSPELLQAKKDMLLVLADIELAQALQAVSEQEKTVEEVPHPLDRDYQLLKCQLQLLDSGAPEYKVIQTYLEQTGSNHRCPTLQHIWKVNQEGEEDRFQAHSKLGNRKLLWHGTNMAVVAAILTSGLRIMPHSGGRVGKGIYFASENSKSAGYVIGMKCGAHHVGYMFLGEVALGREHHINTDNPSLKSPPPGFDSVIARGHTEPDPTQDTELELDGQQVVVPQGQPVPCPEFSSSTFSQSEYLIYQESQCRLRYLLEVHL
The assay can be described thus: Inhibition of human ARTD3 by fluorescence analysis.

For assay [7], the target named is T4, Protein mono-ADP-ribosyltransferase PARP12 (Homo sapiens, UniProt Q9H0J9).
T4 sequence (Q9H0J9 whole entry): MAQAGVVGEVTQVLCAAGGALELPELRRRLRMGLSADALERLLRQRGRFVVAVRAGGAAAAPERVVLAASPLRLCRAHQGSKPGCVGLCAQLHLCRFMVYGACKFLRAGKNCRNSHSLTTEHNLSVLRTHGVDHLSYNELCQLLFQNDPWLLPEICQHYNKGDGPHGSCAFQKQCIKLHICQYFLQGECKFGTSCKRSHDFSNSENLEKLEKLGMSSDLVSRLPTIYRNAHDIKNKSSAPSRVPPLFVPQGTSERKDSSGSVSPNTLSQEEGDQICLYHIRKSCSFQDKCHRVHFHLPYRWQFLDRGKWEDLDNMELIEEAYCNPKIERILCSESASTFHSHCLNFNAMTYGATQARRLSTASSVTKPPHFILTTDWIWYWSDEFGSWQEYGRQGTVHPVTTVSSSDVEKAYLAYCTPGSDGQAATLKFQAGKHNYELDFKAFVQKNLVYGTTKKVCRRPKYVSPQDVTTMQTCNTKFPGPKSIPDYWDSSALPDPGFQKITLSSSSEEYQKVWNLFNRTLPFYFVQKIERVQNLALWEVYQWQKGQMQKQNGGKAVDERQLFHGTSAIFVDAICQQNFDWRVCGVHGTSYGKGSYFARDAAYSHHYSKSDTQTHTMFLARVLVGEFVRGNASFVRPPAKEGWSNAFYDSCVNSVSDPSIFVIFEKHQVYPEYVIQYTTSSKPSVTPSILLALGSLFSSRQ
The assay can be described thus: Inhibition of human ARTD12 by fluorescence analysis.

In assay [8] the target is Protein mono-ADP-ribosyltransferase PARP4 (Homo sapiens, UniProt Q9UKK3). The assay can be described thus: Inhibition of human ARTD4 by fluorescence analysis.

Where only a bound is given, the exact number is not on record here.

Sequence of Poly [ADP-ribose] polymerase 1 (P09874 whole entry): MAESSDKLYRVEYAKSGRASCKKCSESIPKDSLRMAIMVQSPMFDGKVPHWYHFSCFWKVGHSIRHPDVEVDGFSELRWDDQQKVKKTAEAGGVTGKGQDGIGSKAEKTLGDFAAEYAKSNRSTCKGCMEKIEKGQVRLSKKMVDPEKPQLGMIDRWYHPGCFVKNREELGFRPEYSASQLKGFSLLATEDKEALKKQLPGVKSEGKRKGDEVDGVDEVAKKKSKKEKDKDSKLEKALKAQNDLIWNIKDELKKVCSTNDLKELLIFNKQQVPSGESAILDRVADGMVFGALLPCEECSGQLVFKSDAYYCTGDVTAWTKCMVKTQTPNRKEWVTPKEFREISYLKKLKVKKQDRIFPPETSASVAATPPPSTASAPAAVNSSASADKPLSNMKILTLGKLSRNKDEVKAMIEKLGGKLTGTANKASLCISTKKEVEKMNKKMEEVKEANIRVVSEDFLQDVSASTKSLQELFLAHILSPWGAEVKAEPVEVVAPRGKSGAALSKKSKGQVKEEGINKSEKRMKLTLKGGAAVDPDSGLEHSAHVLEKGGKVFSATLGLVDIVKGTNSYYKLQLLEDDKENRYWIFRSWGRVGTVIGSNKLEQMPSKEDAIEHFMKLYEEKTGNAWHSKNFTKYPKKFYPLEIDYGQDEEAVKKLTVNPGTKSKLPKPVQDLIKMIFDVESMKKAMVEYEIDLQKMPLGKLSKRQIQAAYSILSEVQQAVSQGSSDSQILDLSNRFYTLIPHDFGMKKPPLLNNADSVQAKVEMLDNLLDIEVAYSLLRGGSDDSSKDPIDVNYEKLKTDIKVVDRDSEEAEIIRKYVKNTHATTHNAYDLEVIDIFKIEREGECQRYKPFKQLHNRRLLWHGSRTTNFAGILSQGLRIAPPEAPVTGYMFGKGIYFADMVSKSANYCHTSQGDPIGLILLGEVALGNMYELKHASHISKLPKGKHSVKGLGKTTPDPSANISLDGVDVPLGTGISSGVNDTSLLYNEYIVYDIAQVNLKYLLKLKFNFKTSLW
Sequence of Protein mono-ADP-ribosyltransferase PARP14 (Q460N5 whole entry): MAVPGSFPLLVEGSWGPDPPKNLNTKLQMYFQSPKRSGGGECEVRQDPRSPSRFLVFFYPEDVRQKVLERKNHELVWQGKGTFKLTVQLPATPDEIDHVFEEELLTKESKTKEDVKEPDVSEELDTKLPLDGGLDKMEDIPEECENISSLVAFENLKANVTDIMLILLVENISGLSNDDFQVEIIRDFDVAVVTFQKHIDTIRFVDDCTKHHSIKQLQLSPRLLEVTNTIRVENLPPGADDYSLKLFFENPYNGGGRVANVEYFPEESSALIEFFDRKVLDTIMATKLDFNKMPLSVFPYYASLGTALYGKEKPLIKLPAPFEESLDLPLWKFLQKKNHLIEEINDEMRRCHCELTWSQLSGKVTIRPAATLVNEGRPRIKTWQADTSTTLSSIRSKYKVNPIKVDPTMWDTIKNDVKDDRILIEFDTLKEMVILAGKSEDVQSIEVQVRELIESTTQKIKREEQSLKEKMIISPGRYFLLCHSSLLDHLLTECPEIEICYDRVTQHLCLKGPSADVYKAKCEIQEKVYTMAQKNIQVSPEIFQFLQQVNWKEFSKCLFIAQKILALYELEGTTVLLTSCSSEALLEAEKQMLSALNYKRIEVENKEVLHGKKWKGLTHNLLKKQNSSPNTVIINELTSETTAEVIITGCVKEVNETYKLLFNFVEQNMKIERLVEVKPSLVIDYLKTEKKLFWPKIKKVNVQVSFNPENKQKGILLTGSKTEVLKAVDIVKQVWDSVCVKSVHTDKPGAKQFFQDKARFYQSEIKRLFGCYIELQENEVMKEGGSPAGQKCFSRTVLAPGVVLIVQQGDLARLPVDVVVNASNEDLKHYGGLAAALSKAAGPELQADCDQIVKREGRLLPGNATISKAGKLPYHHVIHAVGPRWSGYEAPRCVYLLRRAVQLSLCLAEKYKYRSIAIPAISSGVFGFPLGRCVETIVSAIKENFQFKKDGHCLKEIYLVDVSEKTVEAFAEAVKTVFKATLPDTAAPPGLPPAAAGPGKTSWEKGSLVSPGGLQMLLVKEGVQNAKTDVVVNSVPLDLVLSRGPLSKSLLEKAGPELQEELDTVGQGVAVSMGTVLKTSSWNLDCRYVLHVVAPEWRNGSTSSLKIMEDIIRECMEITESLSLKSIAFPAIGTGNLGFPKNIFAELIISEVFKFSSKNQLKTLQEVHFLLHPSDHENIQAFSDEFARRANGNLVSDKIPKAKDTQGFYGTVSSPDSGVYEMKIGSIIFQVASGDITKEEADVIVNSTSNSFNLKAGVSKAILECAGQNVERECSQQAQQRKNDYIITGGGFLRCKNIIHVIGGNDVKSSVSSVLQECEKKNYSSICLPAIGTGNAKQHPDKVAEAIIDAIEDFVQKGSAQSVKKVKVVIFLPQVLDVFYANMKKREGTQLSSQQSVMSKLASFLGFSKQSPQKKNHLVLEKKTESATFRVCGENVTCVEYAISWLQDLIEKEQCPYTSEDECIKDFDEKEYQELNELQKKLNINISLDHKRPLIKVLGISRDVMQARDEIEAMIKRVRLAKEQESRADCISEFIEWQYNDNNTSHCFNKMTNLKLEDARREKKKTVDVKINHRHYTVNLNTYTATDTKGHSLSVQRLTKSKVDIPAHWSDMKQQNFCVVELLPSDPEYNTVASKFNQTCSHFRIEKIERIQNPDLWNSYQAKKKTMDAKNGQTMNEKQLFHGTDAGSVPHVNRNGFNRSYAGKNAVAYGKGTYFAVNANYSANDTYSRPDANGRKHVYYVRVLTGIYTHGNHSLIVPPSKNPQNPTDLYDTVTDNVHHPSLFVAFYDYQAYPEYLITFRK
Sequence of Protein mono-ADP-ribosyltransferase PARP4 (Q9UKK3 whole entry): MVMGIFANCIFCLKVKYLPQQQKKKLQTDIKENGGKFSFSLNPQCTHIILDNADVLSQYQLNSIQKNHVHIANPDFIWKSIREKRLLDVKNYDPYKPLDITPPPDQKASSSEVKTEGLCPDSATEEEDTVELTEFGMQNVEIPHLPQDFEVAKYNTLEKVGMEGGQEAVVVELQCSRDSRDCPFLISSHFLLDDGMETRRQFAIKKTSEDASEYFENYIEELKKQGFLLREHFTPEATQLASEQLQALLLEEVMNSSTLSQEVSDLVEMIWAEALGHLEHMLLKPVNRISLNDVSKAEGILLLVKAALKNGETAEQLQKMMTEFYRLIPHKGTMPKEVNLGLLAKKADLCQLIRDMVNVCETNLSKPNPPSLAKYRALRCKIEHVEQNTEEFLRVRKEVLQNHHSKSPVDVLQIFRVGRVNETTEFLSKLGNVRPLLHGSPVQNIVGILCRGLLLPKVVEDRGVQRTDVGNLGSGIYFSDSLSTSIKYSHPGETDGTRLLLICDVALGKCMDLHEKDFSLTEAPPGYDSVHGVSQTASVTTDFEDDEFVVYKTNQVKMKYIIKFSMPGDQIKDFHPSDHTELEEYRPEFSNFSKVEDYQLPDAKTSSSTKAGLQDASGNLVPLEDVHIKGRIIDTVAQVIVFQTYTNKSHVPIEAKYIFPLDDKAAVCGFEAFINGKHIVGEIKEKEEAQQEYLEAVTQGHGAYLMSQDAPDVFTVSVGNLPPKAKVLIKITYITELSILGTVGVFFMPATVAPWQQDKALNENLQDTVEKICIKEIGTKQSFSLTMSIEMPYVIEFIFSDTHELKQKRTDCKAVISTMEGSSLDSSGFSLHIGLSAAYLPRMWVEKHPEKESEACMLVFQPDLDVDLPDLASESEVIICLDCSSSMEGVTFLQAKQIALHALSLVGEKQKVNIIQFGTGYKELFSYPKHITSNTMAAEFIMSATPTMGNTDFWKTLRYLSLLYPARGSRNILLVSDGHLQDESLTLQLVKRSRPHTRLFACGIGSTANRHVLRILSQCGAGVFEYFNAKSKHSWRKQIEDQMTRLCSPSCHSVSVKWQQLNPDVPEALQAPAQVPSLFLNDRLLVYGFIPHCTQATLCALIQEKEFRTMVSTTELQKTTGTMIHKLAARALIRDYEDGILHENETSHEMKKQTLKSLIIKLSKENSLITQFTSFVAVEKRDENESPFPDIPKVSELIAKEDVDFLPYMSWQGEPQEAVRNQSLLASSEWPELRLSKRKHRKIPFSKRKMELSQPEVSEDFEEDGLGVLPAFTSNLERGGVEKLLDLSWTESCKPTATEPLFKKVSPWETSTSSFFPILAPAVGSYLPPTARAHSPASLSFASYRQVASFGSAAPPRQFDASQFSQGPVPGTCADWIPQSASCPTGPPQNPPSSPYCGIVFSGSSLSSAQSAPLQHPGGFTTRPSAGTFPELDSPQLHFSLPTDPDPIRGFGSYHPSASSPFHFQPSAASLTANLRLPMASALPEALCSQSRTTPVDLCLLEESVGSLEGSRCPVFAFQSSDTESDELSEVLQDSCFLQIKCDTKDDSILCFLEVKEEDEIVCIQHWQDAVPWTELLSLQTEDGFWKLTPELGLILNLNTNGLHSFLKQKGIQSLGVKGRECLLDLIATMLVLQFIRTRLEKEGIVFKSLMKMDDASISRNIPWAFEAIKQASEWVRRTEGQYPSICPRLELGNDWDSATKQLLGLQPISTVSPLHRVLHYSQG
Sequence of Poly [ADP-ribose] polymerase 2 (Q9UGN5 whole entry): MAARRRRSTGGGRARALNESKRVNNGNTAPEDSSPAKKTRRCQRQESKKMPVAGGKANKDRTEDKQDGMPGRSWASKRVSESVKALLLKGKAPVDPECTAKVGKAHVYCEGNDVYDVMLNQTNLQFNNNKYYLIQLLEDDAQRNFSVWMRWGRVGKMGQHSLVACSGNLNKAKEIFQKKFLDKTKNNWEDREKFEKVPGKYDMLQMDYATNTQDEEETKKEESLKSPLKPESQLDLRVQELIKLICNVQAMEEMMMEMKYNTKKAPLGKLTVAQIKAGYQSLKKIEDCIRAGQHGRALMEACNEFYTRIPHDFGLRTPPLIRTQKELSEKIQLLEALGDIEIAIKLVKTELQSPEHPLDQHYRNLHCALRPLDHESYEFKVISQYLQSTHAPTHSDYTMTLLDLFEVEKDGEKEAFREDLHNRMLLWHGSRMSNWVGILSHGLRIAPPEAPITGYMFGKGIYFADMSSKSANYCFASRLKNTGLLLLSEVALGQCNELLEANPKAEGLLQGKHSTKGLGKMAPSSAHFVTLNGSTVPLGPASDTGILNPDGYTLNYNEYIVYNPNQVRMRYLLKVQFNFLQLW

Take `COc1ccc(C(=O)Nc2ccc(C(=O)N(c3ccncn3)c3ccccc3Cl)cc2)cc1`: the IC50 was 77 µM in assay [1]; over 10 µM in assay [2]; over 10 µM in assay [3]; over 10 µM in assay [4]; over 100 µM in assay [5]; over 100 µM in assay [6]. Moreover, the IC50 is over 10 µM in assay [7] and over 100 µM in assay [8].
